Experimental data published in patent US20250120986A1, “STEROL THERAPY” (UCL BUSINESS LTD, priority 2021, published 2025).

Columns and labels:
H9C2 cardiomyocyte cells = test: Sterol concentration in H9C2 cells after MßCD depletion (Amplex Red / BCA); format: cell-based, rat; details: sterol-MßCD complex, 68 microM sterol, 4 hours
Method: Rat embryonic cardiomyocyte H9C2 cells were cultured in high-glucose DMEM (Gibco 41965-039) supplemented with 10% fetal bovine serum (FBS, Gibco 10270-106) and 100 U/ml of penicillin/streptomycin at 37° C. in a humidified atmosphere of 5% CO2. Cells were split every 2-3 days.
Two days prior to experimentation, cells were seeded in 6 well plates (Corning N-3516) 3×10^5 cells/well. Before any treatment. cells were washed twice with prewarmed PBS.
(§1) Cells were incubated in 5 mM solution MßCD in DMEM for 30 minutes. Before treatment cells were washed twice with prewarmed PBS to remove remaining FBS and prevent contamination of exogenous cholesterol.
After MßCD treatment cells were washed twice with prewarmed PBS to remove remaining MßCD solution and then incubated for 4 hours with either (i) complex Cholesterol—MßCD or (ii) Sitosterol—MßCD. These were prepared according to the protocol reported by Klein et al. (Biochemistry 1995; 34:13784). […]
After incubation MßCD-treated, MßCD/Sterol treated, and untreated (control) cells were washed twice with ice-cold PBS and lysed with phosphate buffer (0.1 M potassium phosphate pH 7.4, 50 mM NaCl, 5 mM cholic acid, 0.1% Triton X-100, protease inhibitors) on ice. […] Protein and sterol concentrations were measured by BCA and Cholesterol Amplex Red assays, respectively. […]

H9C2 cell line = test: Western blot of ERK2 phosphorylation after adrenaline treatment (adrenergic signalling); format: cell-based, rat; details: for ERK2 phosphorylation after adrenaline treatment: H9C2 depleted with MßCD, then incubated with sterol
Method: as §1
After MßCD treatment cells were washed twice with prewarmed PBS to remove remaining MßCD solution and then incubated for 4 hours with either (i) complex Cholesterol—MßCD or (ii) Sitosterol—MßCD. These were prepared according to the protocol reported by Klein et al. (Biochemistry 1995; 34:13784). Sterol complexes were diluted ×100 in DMEM to produce final concentrations of 68 microM cholesterol, 68 microM sitosterol and 700 microM MßCD.
Control, MßCD or MßCD/sterol-treated cells were incubated for 10 minutes with adrenaline or noradrenaline solution in DMEM (final concentration 10^−7M).
Cells were washed and lysed on plates with RIPA buffer supplemented by protease and phosphatase inhibitors on ice for 30 minutes. Lysates were treated as described above for sterol determination. Protein concentration was determined by BCA assay. Western blot samples were prepared by mixing the lysates with 5× loading buffer (Tris HCl pH 6.8 312.5 mM, SDS 10%, bME 12.5%, glycerol 47.5%, bromophenol blue 0.01%). 2 mcg of protein/sample was separated by electrophoresis on 10% SDS-PAGE and transferred to a PVDF membrane. Membrane was blocked with 5% BSA in TBST for 1 hour at room temperature with gentle agitation and incubated with primary anti-pERK or anti-PFK antibodies overnight at 4° C. Both primary antibodies were diluted 2000 times in 5% BSA in TBST. […]
Chemiluminescent detection was performed using the Clarity TM Western ECL Substrate (Bio-Rad). Band intensity was analysed by Image Studio Lite ver5.2. Results are calculated as a ratio of intensities of pERK2 band to PFK band for each sample and normalized as a percentage from the average of samples treated with adrenaline only.

[1] = system: sham-operated rats and septic rats; test: Catecholamine responsiveness study (dobutamine / noradrenaline challenge) in rat faecal peritonitis model; format: in vivo; details: 10 minutes after commencement of infusion
Method: II. Sepsis was induced in awake, instrumented male Wistar rats (316±23.5 g) as described above but using 7 microL of faecal slurry/g body weight. Rats were allocated into sham-operated (control), sepsis and sepsis+cholesterol groups.
At 6 h post-induction of sepsis, the sepsis+cholesterol group received an i.v. infusion of a cholesterol-loaded formulation, either liposomal- or bovine HDL (10 mg cholesterol/300 g bw), which was continued over 15 hours.
At 21 h, catecholamine responsiveness was tested by consecutively administering, under isoflurane anaesthesia, the beta-adrenergic agonist, dobutamine (10 μg/kg/min for 10 min) and then the predominant alpha-adrenergic agonist, norepinephrine (0.5 μg/kg/min for 10 min) with a 30 min washout period in between.
Blood pressure (measured continuously from an indwelling carotid line), heart rate and stroke volume (measured by echocardiography) were measured before and at 10 minutes after each drug was infused.

H9C2 cardiomyocytes = test: ERK1 and ERK2 phosphorylation after dobutamine treatment (adrenergic signalling); format: cell-based, rat; details: H9C2 treated with MßCD alone
Method: Adrenergic signalling was evaluated in the H9C2 cardiomyocytes by the increase of ERK1 and ERK2 phosphorylation after dobutamine treatment.

[2] = septic rats, 21 h post-faecal peritonitis

CC(C)CCC[C@@H](C)[C@H]1CC[C@H]2[C@@H]3CC=C4C[C@@H](O)CC[C@]4(C)[C@H]3CC[C@]12C [cholesterol, Cholesterol]
cellular sterol content after MßCD depletion (H9C2 cardiomyocyte cells): Sterol content was restored
ERK2 phosphorylation after adrenaline treatment (H9C2 cell line): 2 × normal

CC(CCc1ccc(O)cc1)NCCc1ccc(O)c(O)c1 (stereo not shown) [dobutamine]
stroke volume response to the agonist [1, 2]: non-responsive
stroke volume response to the agonist ([1]; sham animals): significant rises

NC[C@H](O)c1ccc(O)c(O)c1 [noradrenaline]
blood pressure response to the agonist [1, 2]: non-responsive
blood pressure response to the agonist ([1]; sham animals): significant rises

CC[C@H](CC[C@@H](C)[C@H]1CC[C@H]2[C@@H]3CC=C4C[C@@H](O)CC[C@]4(C)[C@H]3CC[C@]12C)C(C)C [sitosterol, Sitosterol]
cellular sterol content after MßCD depletion (H9C2 cardiomyocyte cells): Sterol content was restored
ERK2 phosphorylation after adrenaline treatment (H9C2 cell line): 2 × normal

Methyl-β-cyclodextrin [MßCD]
ERK2 phosphorylation after adrenaline treatment (in words) (H9C2 cell line; H9C2, 5 mM MßCD for 30 minutes): decreased ERK2 phosphorylation
phosphorylation of ERK1 and ERK2 after dobutamine treatment (H9C2 cardiomyocytes): decreased phosphorylation of both ERK1 and ERK2
